{"source": "patent US20250136617A1", "about": "(The Regents of the University of Colorado, A Body Corporate, priority 2022, published 2025)", "format_in_all_cases": "cell-based", "key": {"[1]": {"test_system": "CEM-CCRF human lymphoblast cells", "assay": "Transwell migration assay in CEM-CCRF lymphoblasts", "in_short": "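CEM-CCRF cells at 5.0×10^5 cells/mL in RPMI 1640, preincubated 1 h at 37 °C, 5% CO2, then allowed to migrate in a 96-well transwell system for 3 h at 37 °C. Migrated cells in the receiver tray quantified by ATPLite luminescence.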"}, "CXCR4 [2]": {"biological_target": "T1, CXCR4 (Homo sapiens, UniProt P61073)", "T1 sequence (P61073 whole entry)": "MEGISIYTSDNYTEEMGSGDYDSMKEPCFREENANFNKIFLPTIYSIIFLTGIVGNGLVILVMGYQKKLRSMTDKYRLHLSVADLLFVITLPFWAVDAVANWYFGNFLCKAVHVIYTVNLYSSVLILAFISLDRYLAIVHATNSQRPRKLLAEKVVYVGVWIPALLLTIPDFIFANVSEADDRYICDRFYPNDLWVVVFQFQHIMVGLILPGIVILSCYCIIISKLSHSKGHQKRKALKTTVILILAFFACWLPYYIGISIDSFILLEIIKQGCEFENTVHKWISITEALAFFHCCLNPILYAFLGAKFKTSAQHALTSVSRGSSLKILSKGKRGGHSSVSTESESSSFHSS", "assay": "cAMP signaling assay, oxazole scaffold (forskolin-induced adenylate cyclase, CHO-K1 CXCR4 cells)", "design": "host or cells: CHO-K1", "details": "listed as UCUF-728", "experimental": "The CXCR4 receptor is a G-protein coupled receptor (GPCR) coupled to the Gi class, whose primary role is inhibition of adenylate cyclase. The ability of UCUF-728 to induce Gi-mediated cAMP-inhibitory cellular response was tested.\nForskolin at final concentration of […] was added to all wells using the TECAN dispenser. […] PathHunter CHO-K1 CXCR4 cells (DiscoverX, Fremont, CA) were added to compounds at 3,000 cells/well, centrifuged at 1000 rpm for 30 sec and incubated for 30 min at room temperature. DMSO (Sigma Aldrich, St. Louis, MO) was normalization to 0.5%. 5 μL of 4× Eu-cAMP tracer working solution was added to all wells followed by addition of 5 μL of 4× Ulight-anti-cAMP working solution to all wells. Plates were centrifuged at 1000 rpm for 1 min and incubated for 1 hr at room temperature then read using CLARIOstar Plus (BMG LABTECH Inc., Cary, NC) Lance CAMP protocol."}, "miR-29a": {"test_system": "miR-29a", "assay": "miR-29a expression in murine fibroblasts", "details": "24 h; listed as UCUF-965", "experimental": "Total RNA was extracted with TRIzol reagent (Invitrogen, Carlsbad, CA, USA) according to the manufacturer's established protocol. RNA was converted into cDNA using the SuperScript First-Strand Synthesis System (Invitrogen, Life Technologies). Primers and probes for mouse miR-15b and miR-29a were acquired from Applied Biosystems TaqMan gene expression assay (Applied Biosystems, Foster City, CA). Quantitative PCR was performed on a BIO-RAD CFX96 according to the manufacturer's instructions. Quantitative values of genes of interest are normalized based on U6. Samples (n=5 per group) were amplified in triplicate and results were averaged for each individual sample. The ΔΔCT method was used to calculate relative gene expression. Results are reported as mean±SD.\nThe expression of specific micro-RNA levels reported to be crucial in the wound-healing process were measured in order to validate and correlate the in vitro activity of UCUF-965 as a selective CXCR4 receptor modulator to micro-RNA expression. Murine diabetic and non-diabetic fibroblasts were cultured with increasing concentrations of the compound. The cells were incubated for 24 h and then total cellular RNA was isolated to examine the ability of the compound to correct the abnormal expression levels of miR-15b, miR-29a, and miR-146a. […]"}, "miR-146a": {"test_system": "miR-146a", "assay": "miR-146a expression in murine fibroblasts", "details": "24 h; listed as UCUF-965", "experimental": "The expression of specific micro-RNA levels reported to be crucial in the wound-healing process were measured in order to validate and correlate the in vitro activity of UCUF-965 as a selective CXCR4 receptor modulator to micro-RNA expression. Murine diabetic and non-diabetic fibroblasts were cultured with increasing concentrations of the compound. The cells were incubated for 24 h and then total cellular RNA was isolated to examine the ability of the compound to correct the abnormal expression levels of miR-15b, miR-29a, and miR-146a. The effect of UCUF-965 on expression of miR-15b, which inhibits angiogenesis and wound repair was examined."}, "CXCR4 [3]": {"biological_target": "T1, CXCR4", "assay": "Adenylate cyclase (cAMP inhibition) assay, thiadiazine scaffold, CHO-CXCR4-cAMP cells", "design": "host or cells: CHO-K1", "experimental": "Tango™ CXCR4-bla U2OS Cells (Invitrogen; K1779) were used for (β-arrestin recruitment assays and maintained as a monolayer culture in McCoy's 5a (Corning; 10-050-CV) supplemented with 10% dialyzed Fetal Bovine Serum (Gibco; 26400-044), 0.1 mM MEM Non-essential amino acids solution, 25 mM HEPES solution (Corning; 25-060-CI), 1 mM Sodium Pyruvate (Gibco; 11360-070), 200 μg/mL Zeocin selection reagent (Gibco; R25001), 50 μg/mL Hygromycin B (Gibco, 10687010), and 100 μg/mL Geneticin (G418 Sulfate) (Gibco, 10131035). U2OS cells were subcultured twice weekly by 0.05% Trypsin-EDTA treatment (Corning; 25-051-CI) and passaged to continue exponential growth phase for cell signaling assays. All cell cultures were maintained in cell culture incubators at 37° C. with 5% CO2. CHO-K1 CXCR4 cells (DiscoverX, Fremont, CA, USA) were used for cAMP inhibition assays and maintained as a monolayer culture in DMEM/F12 (Corning; 10-091-CV) supplemented with 10% Fetal Bovine Serum (Corning; 35-011-CV) and 100IU penicillin, […] streptomycin sulfate (Corning; 30-002-CI) and […] G418 (Gibco; 101310350. Cells were subculture 2 times weekly by o.o5% Trypsin-EDTA treatment (Corning; 25-051-CI) and passaged to continue exponential growth phase for cell signaling assays. All cell cultures were maintained in cell culture incubators at 37° C. with 5% CO2.CEM-CCRF cells (ATCC CCL-119) were used in both the migration and calcium flux assays and were cultured in growth media consisting of RPMI 1640 (Corning; 10-040-CV) supplemented with 10% Fetal Bovine Serum (Corning; 35-011-CV), and 100 IU penicillin, […] streptomycin sulfate (Corning; 30-002-CI). […] Cells were harvested for use in migration and calcium flux assays at 2.0×10^6 cells/mL to 2.5×10^6 cells/mL and resuspended in assay media to desired density for respective experiments.\nCompounds and DMSO normalization to 0.5% were dispensed using the TECAN D300e digital dispenser into the wells of a 384-well white wall clear-bottom assay plate (Griener 781983). […] This cell suspension was dispensed at 20 μL per well into the assay plate and allowed to incubate overnight for approximately 18 hrs with compounds in cell culture incubator at 37° C. with 5% CO2. Following incubation, DMEM/F12 media was gently removed, then the Lance Ultra cAMP Kit (Perkin Elmer; TRF0263) was performed according to the supplier guidelines. […] Time-resolved fluorescence was measured on the BMG LABTECH CLARIOstar Plus (BMG LABTECH Inc., Cary, NC) using the Lance Ultra cAMP kit guidelines for excitation and emission. […]"}}, "note": "Entries after “also recorded” stand apart in the source; their conditions may differ. Read-outs that look alike come from different tables or passages of the source."}
{"smiles": "COc1ccc(OC)c(NS(=O)(=O)c2ccc(-c3cnc(C4CC4)o3)cc2)c1", "note": "[Oxazole Entry 19, 4-(2-Cyclopropyloxazol-5-yl)-N-(2,5-dimethoxyphenyl)benzenesulfonamide]", "values": [{"measurement": "migration activity (words)", "setting": "[1]; listed as UCUF-728", "result": "induced migration with similar EC50 and Emax as the B-arrestin recruitment activity; also recorded: SDF-1α-mediated response was potentiated; also recorded: dose-dependent partial activation of CEM-CCRF cell migration"}, {"measurement": "cAMP signaling / forskolin-induced adenylate cyclase", "setting": "CXCR4 [2]", "result": "did not inhibit forskolin-induced adenylate cyclase; also recorded: does not show dose-dependent activity"}]}
{"smiles": "CCOc1ccccc1-c1nnc2n1N=C(c1ccc(N3CCCC3)cc1)CS2", "note": "[Thiadiazine Entry 23, 3-(2-ethoxyphenyl)-6-(4-(pyrrolidin-1-yl)phenyl)-7H-[1,2,4]triazolo[3,4-b][1,3,4]thiadiazine]", "values": [{"measurement": "fold lower potency in migration vs β-arrestin recruitment assay", "setting": "[1]", "result": 10, "unit": "fold"}, {"measurement": "migration activity (words)", "setting": "[1]", "result": "partial activator of CXCR4-mediated cell migration"}, {"measurement": "EC50", "setting": "[1]; Homo sapiens, read-out: Migration log EC50, log value, n=3 (converted)", "result": 398, "unit": "nM"}, {"measurement": "Migration CEM Emax (%)", "setting": "[1]; listed as UCUF-965", "result": 31, "unit": "%"}, {"measurement": "EC50", "setting": "[1]; read-out: Migration CEM EC50, listed as UCUF-965", "result": 400, "unit": "nM"}, {"measurement": "miR-29a expression", "setting": "miR-29a", "result": "significant decrease of miR-29a levels; also recorded: suppression of miR15b and miR29a"}, {"measurement": "miR-146a expression", "setting": "miR-146a", "result": "increase of miR-146a levels; also recorded: induction of miR146a"}, {"measurement": "cAMP inhibition activity", "setting": "CXCR4 [3]; listed as UCUF-965", "result": "dose-dependent partial agonist response; also recorded: dose-dependent partial inhibition of forskolin-stimulated cAMP production; also recorded: did not inhibit the action of SDF-1α; also recorded: doubling the Emax"}, {"measurement": "cAMP log EC50", "setting": "CXCR4 [3]; log value, n=3", "result": "−7.3±0.2", "unit": "M"}, {"measurement": "Emax", "setting": "CXCR4 [3]; read-out: cAMP maximal response (Emax) of SDF-1α potentiated by, pretreatment with 0.1 μM UCUF-965", "result": 110, "unit": "%"}, {"measurement": "Emax", "setting": "CXCR4 [3]; read-out: cAMP maximal response (Emax) of SDF-1α potentiated by, pretreatment with 1 μM UCUF-965", "result": 201, "unit": "%"}, {"measurement": "Emax", "setting": "CXCR4 [3]; read-out: cAMP maximal response (Emax) of SDF-1α potentiated by, pretreatment with 5 μM UCUF-965", "result": 209, "unit": "%"}]}
